# Several values for one entry are separate records, joined by “and”; a condition that tells them apart may be missing. Equal values may be shown once. Entries after “also recorded” stand apart in the source; their conditions may differ.
# Legend:
# [1] = target: T1, recombinant human full-length Polθ (Fl-Polθ) (Homo sapiens, UniProt O75417); assay: Fl-Polθ DNA/DNA primer extension; assay type: biochemical; conditions: 0.15-12 µM, gel
# T1 construct: recombinant human full-length Polθ (Fl-Polθ); made in house
# T1 sequence (O75417 whole entry): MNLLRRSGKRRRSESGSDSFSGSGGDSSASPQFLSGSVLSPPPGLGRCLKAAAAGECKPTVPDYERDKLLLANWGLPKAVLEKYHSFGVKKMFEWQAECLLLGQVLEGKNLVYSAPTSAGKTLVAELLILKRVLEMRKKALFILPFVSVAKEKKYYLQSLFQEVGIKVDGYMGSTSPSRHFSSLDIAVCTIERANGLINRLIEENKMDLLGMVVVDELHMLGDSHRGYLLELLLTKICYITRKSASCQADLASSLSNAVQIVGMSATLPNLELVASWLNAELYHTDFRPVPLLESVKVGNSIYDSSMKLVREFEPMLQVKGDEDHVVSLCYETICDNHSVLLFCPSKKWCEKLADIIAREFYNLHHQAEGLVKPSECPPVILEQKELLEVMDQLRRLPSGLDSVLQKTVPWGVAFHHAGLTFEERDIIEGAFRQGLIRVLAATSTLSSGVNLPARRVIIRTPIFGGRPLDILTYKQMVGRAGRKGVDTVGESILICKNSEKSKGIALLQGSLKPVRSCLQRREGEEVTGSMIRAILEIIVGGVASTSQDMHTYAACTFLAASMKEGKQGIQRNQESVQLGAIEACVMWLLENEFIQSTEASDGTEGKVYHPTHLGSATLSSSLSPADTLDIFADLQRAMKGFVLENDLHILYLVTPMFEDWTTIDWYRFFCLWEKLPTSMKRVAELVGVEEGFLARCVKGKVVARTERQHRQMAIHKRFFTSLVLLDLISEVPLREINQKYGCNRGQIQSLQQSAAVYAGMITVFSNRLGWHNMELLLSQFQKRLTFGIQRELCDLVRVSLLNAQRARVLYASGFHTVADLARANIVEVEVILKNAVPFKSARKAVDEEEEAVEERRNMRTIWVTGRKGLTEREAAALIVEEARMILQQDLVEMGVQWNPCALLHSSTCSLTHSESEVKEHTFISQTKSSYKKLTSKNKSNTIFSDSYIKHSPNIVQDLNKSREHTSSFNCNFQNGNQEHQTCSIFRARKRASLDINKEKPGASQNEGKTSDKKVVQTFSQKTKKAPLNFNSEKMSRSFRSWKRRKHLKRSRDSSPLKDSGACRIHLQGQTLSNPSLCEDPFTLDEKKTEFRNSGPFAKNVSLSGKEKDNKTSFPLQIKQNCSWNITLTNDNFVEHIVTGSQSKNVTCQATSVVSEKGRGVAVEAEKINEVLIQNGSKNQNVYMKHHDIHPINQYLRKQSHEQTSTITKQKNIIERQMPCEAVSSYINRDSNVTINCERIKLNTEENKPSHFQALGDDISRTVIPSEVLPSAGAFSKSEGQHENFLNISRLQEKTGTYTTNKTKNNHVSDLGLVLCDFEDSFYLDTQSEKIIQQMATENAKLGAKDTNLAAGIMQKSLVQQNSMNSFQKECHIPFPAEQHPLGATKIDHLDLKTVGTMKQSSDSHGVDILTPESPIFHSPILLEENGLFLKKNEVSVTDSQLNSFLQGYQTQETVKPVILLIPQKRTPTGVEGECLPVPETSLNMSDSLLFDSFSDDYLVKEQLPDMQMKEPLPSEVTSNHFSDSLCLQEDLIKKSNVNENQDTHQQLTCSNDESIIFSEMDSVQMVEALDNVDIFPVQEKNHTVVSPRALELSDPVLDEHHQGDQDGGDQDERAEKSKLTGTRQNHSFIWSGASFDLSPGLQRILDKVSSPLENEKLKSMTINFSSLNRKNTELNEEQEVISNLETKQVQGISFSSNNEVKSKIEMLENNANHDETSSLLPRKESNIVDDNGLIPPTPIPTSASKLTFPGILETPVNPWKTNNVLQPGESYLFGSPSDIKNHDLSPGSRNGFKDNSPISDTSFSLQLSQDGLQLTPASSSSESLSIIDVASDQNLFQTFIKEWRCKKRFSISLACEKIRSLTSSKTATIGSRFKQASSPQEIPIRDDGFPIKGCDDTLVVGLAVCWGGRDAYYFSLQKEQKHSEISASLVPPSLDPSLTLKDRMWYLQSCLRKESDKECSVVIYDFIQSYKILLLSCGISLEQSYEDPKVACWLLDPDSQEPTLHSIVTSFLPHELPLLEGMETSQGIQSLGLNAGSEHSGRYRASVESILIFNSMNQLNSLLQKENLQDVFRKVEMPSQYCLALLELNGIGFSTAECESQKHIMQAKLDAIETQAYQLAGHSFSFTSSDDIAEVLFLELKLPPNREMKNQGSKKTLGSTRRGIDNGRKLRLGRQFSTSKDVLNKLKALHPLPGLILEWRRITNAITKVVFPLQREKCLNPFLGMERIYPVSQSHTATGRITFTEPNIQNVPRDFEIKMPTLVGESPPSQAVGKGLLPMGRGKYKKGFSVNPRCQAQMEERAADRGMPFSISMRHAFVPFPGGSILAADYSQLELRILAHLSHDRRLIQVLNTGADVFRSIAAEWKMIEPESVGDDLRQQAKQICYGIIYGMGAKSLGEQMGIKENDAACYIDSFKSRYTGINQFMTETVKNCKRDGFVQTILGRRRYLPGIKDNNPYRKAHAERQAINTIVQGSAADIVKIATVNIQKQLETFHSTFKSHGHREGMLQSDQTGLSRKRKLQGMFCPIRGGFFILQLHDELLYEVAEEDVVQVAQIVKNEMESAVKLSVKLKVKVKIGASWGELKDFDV
# Polθ-pol = target: T2, Polθ-pol (Homo sapiens, UniProt O75417); assay: Relative rate of Polθ-pol dAMP addition; assay type: biochemical
# T2 construct: purified recombinant human Polθ-pol (comprising amino acid residues 1792–2590); made in house
# T2 sequence (O75417 1792-2590): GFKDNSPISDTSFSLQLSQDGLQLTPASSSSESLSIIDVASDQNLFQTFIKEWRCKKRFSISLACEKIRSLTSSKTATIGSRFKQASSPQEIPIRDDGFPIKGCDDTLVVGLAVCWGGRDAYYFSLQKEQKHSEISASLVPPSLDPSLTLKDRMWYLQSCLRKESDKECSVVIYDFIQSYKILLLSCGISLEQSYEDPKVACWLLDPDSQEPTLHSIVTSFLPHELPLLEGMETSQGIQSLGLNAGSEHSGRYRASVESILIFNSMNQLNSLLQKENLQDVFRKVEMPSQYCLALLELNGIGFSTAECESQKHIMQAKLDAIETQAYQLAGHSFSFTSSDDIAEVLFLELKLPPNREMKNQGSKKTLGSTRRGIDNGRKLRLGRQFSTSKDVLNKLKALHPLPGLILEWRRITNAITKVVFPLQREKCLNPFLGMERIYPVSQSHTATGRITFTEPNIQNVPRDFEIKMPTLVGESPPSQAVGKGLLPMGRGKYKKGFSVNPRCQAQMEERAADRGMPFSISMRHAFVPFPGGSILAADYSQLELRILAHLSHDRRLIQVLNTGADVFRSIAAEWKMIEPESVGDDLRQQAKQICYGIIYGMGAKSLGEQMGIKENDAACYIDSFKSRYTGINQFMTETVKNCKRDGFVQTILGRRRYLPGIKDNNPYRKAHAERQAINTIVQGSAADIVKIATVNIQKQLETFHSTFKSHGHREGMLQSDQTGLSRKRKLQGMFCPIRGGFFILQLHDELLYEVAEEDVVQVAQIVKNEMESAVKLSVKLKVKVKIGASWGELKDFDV
# Protocol: Relative rate of Polθ-pol dAMP addition. The relative rates of dAMP incorporation by Polq-pol in the presence of DMSO or MC160385 with various concentrations of dATP were measured using the following primer extension assay in vitro. 2 nM or Polθ-pol was incubated with 5’ ^32P-γ-ATP labeled 100 nM primer-template (RP469D/RP486) in 1X buffer (25 mM TrisHCl pH 7.8, 0.01% NP40, 10% glycerol, 1 mM DTT, 10 mM MgCl2, 0.1 mg/ml BSA) at room temp. 2.5% DMSO, 7.5 nM or 12 nM of MC160385 was added. Reactions were than initiated by the addition of 20, 50, 100, 200, or 300 μM dATP at room temp. Aliquots of the reactions were removed and terminated by the addition of 50 mM EDTA at 3, 3.5, 4 and 5 min after the reaction was initiated. Radio-labeled DNA was then resolved via denaturing 20% PAGE and visualized by Typhoon PhosphorImager (GE Amersham). Rates of dAMP incorporation were calculated from % extension of the prime-template which was determined using ImageJ software. Relative rate of ddCMP addition on DNA/DNA and DNA/RNA. 25 nM nucleic acid DNA/DNA or DNA/RNA primer-template (RP559/RP702 or RP559/RP702R) was mixed with 1X reaction buffer (20 mM TrisHCl pH 7.5, 0.01% NP-40, 0.5 mM DTT, 10% glycerol, 0.1 mg/ml BSA, 10 mM MgCl2) in the presence of 250 μM ddCTP at room temp. Next, 2 μM RTx-161 or 2.5% DMSO was added. Reactions were initiated by the addition of 10 nM Polθ-pol. Reaction aliquots were removed and terminated by the addition of 50 mM EDTA at the indicated time points. Radio-labeled DNA was then resolved via denaturing 20% PAGE and visualized by Typhoon PhosphorImager. Percent primer extension by single ddCMP addition at each time point was calculated from % extension of the prime-template which was determined using ImageJ software.
# BRCA2-WT cells = assay: Clonogenic assay (number of colonies counted); assay type: cell-based; conditions: three replicates
smiles,measurement,setting,value
CN(C(=O)Oc1ccc(C(F)(F)F)cc1C(F)(F)F)c1ccc(F)cc1 [MC160385],inhibition of Fl-Polθ DNA synthesis activity,[1],inhibits; also recorded: inhibition
same,effect on Km for dATP,Polθ-pol,slightly reducing
same,effect on Vmax of dAMP incorporation,Polθ-pol,significantly reduces
same,relative velocity of dAMP incorporation (avg),"Polθ-pol; 7.5 nM MC160385, dATP 20 uM",2.69 and 2.7
same,relative velocity of dAMP incorporation (avg),"Polθ-pol; 7.5 nM MC160385, dATP 50 uM",5.36 and 5.4
same,relative velocity of dAMP incorporation (avg),"Polθ-pol; 7.5 nM MC160385, dATP 100 uM",6.32 and 6.3
same,relative velocity of dAMP incorporation (avg),"Polθ-pol; 7.5 nM MC160385, dATP 200 uM",6.56 and 6.6
same,relative velocity of dAMP incorporation (avg),"Polθ-pol; 7.5 nM MC160385, dATP 300 uM",6.245 and 6.2
same,relative velocity of dAMP incorporation (avg),"Polθ-pol; 12 nM, dATP 20 uM",2.3
same,relative velocity of dAMP incorporation (avg),"Polθ-pol; 12 nM, dATP 50 uM",4.065
same,relative velocity of dAMP incorporation (avg),"Polθ-pol; 12 nM, dATP 50 uM, listed as MC160386",4.1
same,relative velocity of dAMP incorporation (avg),"Polθ-pol; 12 nM, dATP 100 uM",4.94
same,relative velocity of dAMP incorporation (avg),"Polθ-pol; 12 nM, dATP 100 uM, listed as MC160386",4.9
same,relative velocity of dAMP incorporation (avg),"Polθ-pol; 12 nM, dATP 200 uM",4.6
same,relative velocity of dAMP incorporation (avg),"Polθ-pol; 12 nM, dATP 300 uM",4.95
same,number of olonies counted,BRCA2-WT cells; MC160385 2.5 μM,84 and 87 and 85
same,number of olonies counted,BRCA2-WT cells; MC160385 5 μM,82 and 86 and 83
same,number of olonies counted,BRCA2-WT cells; MC160385 10 μM,80 and 84 and 82
same,number of olonies counted,BRCA2-WT cells; MC160385 20 μM,79 and 84 and 80

# — paper PMC10997755, “Discovery of a small-molecule inhibitor that traps Polθ on DNA and synergizes with PARP inhibitors” (Nature Communications, 2024)
